The test system of this assay is NF-κB. In words: EMSA of NF-κB activation in BMC2.3 cells. To be noted: 3 μg/ml, various times at 37° C. (FIG. 4). The format is cell-based, murine. On the procedure:
In order to assess the activation of signal transduction as exemplified by the modulation of one or more transcriptional regulatory factors by underivatized, aqueous soluble β(1-3)-glucan, BMC2.3 cells were incubated with 3 μg/ml underivatized, aqueous soluble β(1-3)-glucan for various periods of time at 37° C. Nuclear extracts were prepared and incubated with ^32P-labeled DNA oligonucleotides specific for NF-κB or NF-IL6. The protein-^32P DNA complexes were separated from unbound ^32P DNA by gel electrophoresis (electrophoretic mobility shift assay, EMSA).
BMC2.3 cells in DMEM plus 10% fetal calf serum were incubated with 3 μg/ml underivatized, aqueous soluble β(1-3)-glucan for various lengths of time. Nuclear extracts were prepared by the method of Dignam et al. (Nuc. Acid Res. 11:1475-1489 (1983)). Nuclear extracts were then incubated with ^32P-labeled DNA oligonucleotide for twenty minutes at room temperature. The sequence of the oligonucleotide used as the probe was […] (SEQ ID NO: 1). The reaction mixture was then separated on a 4% polyacrylamide gel and the results recorded autoradiographically.
(In general: Mobility shift assays separate free from complexed probe on a gel.)

Consider “underivatized, aqueous soluble β(1-3)-glucan [PGG-Glucan]”, for which the “NF-κB protein-^32P DNA complex formation (EMSA, in words)” value is reported as “time dependent increase in protein-DNA complexes”.
